# Where a name gives a salt, the structure may show the parent alone. Read-outs that look alike come from different tables or passages of the source.
# Experiments:
# [1] = system: intracellular killing of GAS by macrophages; assay: Bacterial killing assay (antibiotic protection): intracellular killing of GAS by macrophages; type: cell-based, mouse; details: for intracellular killing of GAS by WT macrophages: preincubation 5 hours, L-Mim 800 μM, OH-pyridone 150 μM, desferrioxamine mesylate 100 μM, CoCl2 100 μM
# Protocol: FIG. 2 is a series of graphs showing HIF-1 regulates bactericidal activity of myeloid cells. (A) Intracellular killing of GAS by WT, HIF-1-null, or vHL-null macrophages. BM-derived macrophages were inoculated with GAS at an MOI equal to 2.5 and cultured under normoxic (white bars) or hypoxic (0.1%; black bars) conditions for 1 hour after antibiotic treatment. Statistical analyses were performed using unpaired Student's t test. *P<0.05; **P<0.01. (B) Loss of HIF-1 in macrophages decreases intracellular killing of GAS and of P. aeruginosa. WT (black bars) or HIF-1-null (white bars) BM-derived macrophages were incubated with bacteria for 1 hour before antibiotics were added. Intracellular killing was analyzed by determination of viable CFUs in macrophage lysates at the specified time points after bacterial uptake. Experiments were performed in triplicate. […] Experiment shown is representative of 3 repeated studies. (C) Loss of vHL in BM-derived macrophages increases intracellular killing of GAS and of P. aeruginosa. Experiments were performed in triplicate and are representative of 3 repeated studies. […] (D) Pharmacologic agonists of HIF-1 increase myeloid cell bactericidal activity. Preincubation (5 hours) with desferrioxamine mesylate (DFO), CoCl2, OH-pyridone, or Mim increased the intracellular killing capacity of WT macrophages against GAS. ***P<0.001.
# To assess the functional consequences of HIF-1α activation, we used an antibiotic protection assay to calculate intracellular killing of GAS by WT macrophages compared with killing by those derived from the bone marrow of HIF-1α-lysMcre mice (11). Here, targeted deletion of the HIF-1α gene has been created via crosses into a background of cre expression driven by the lysozyme M promoter (lysMcre), allowing specific deletion of the transcription factor in the myeloid lineage (11). […] Macrophage killing of the Gram-negative bacterium P. aeruginosa was likewise impaired upon deletion of HIF-1α (FIG. 2B).
# Finally, we treated WT macrophages with a number of known pharmacologic inducers of HIF-1α that each act directly or indirectly to inhibit prolyl hydroxylase targeting of HIF-1α for ubiquitination. These included the iron chelator desferrioxamine, CoCl2, L-Mim, and 3-hydroxy-1,2-dimethyl-4(1H)-pyridone (OH-pyridone) (13). The addition of each of these agents increased intracellular killing of GAS by WT macrophages (FIG. 2D).
# Bacterial killing assays. GAS were grown to logarithmic phase in THB to OD600=1×10^8 cfu/ml. Bacteria were added to macrophages at an MOI of 2.5 bacteria/cell and intracellular killing assessed using an antibiotic protection assay (11, 53) or, alternatively, total cell-associated bacteria measured by vigorous washing with PBS×3 to remove nonadherent bacteria. At the end of the assay, total cell lysate was plated on THB agar for enumeration of CFU. […] To assess macrophage viability, the monolayers were washed with PBS and incubated with 0.04% Trypan blue for 10 minutes at 37° C. As specified in the FIG. 2 legend and in Results, macrophages were preincubated with L-Mim (800 μM), OH-pyridone (150 μM), desferrioxamine mesylate (100 μM), or CoCl2 (100 μM) for 5 hours prior to the killing assay; each drug level was known to be sufficient for HIF-1 induction (13). Absence of bacterial inhibition was tested by incubating the drugs at the above concentrations with GAS (˜105) at 37° C. for 1-24 hours. Mouse model of GAS infection.
# NO production = assay: Nitrite determination (Griess assay) in macrophage supernatants under GAS stimulation; type: cell-based, mouse; details: 1.5 mM AG; macrophages cultured 20 hours
# Protocol: (§1) FIG. 6 provides graphs showing HIF-1 and vHL regulate NO production. (A) Total RNA from WT, HIF-1−/−, and vHL−/− bone marrow-derived macrophages infected with GAS isolated 3 hours after antibiotic treatment. iNOS mRNA was quantified by RT-PCR. WT, nonstimulated macrophages were arbitrarily set to 1 unit following normalization to ribosomal RNA levels. (B) NO production under GAS stimulation ±1.5 mM AG ([…]; Calbiochem). BM-derived macrophages were cultured for 20 hours, conditioned supernatant collected, and NO […] levels measured by the Griess assay. (C) Mim enhances iNOS expression of WT macrophages stimulated by GAS. Total RNA from WT and HIF-1-null BM-derived macrophages infected with GAS±Mim isolated 3 hours after antibiotic treatment. iNOS mRNA was quantified by RT-PCR. WT, noninfected macrophages were arbitrarily set to 1 unit following normalization to ribosomal RNA levels. Statistical analyses performed by unpaired Student's t test. **P<0.01; ***P<0.001. […]
# The concentration of nitrite (NO2-), the stable oxidized derivative of NO, was determined in 100-μl aliquots of cell culture supernatants transferred to 96-well plates. Essentially, 100 μl of Griess reagent (1% sulfanilamide, 0.1% naphthylene diamine dihydrochloride, 2% H3PO4) was added per well, and the absorbances were measured at 540 nm in a microplate reader. […]
# HIF-1α = assay: Western blot of HIF-1α in macrophages exposed to GAS; type: cell-based, mouse; details: WT macrophages, normalized to β-actin
# Protocol: as §1
# Peritoneal neutrophils or bone marrow-derived macrophages inoculated with GAS were harvested and washed with PBS, and proteins were extracted with HTAB or RIPA buffers. Protein concentration was calculated using the Bio-Rad assay (Bio-Rad Laboratories). […] Immunoreactive proteins were detected using the ECL chemiluminescent system (Amersham Biosciences).
# TNF-α = TNF-α ELISA of conditioned macrophage supernatants after GAS; type: cell-based, mouse; details: WT, HIF-1α and vHL-deficient macrophages, 1 hour after antibiotic treatment
# Protocol: FIG. 7 is a series of graphs illustrating HIF-1 and vHL regulate TNF-production. (A) Total RNA from WT, HIF-1−/−, and vHL−/− bone marrow-derived macrophages infected with GAS were isolated 3 hours after antibiotic treatment. TNF-mRNA was quantified by RT-PCR. WT, nonstimulated macrophages were arbitrarily set to 1 unit following normalization to ribosomal RNA levels. (B) inhibition of iNOS decreases TNF-production. BM-derived macrophages were cultured for 1 hour after antibiotic treatment. Conditioned supernatant was harvested and TNF-protein analyzed by ELISA (eBiosciences). Statistical analyses were performed using unpaired Student's t test. ***P<0.001.
# We next examined the expression pattern of TNF-α, a cytokine involved in the augmentation of inflammatory responses to microbial infection. Indeed, development of GAS-necrotizing fasciitis has been reported as a complication of anti-TNF-α therapy (37). […] Whereas basal levels of TNF-α protein expression were similar in WT, HIF-1α, and vHL-null macrophages, loss of HIF-1α also strongly depressed the rapid secretion of TNF-α protein in response to GAS (FIG. 7B).
# [2] = system: HIF-1α-dependant transcription (HRE-luciferase reporter); assay: HRE-luciferase reporter assay in BM-derived macrophages of HRE-luciferase transgenic mice; type: cell-based, mouse; details: 18 hours; L-Mim 800 μM, desferrioxamine mesylate 150 μM, CoCl2 150 μM
# Protocol: (C) HRE-luciferase BM-derived macrophages were incubated either with GAS or heat-inactivated GAS at an MOI equal to 5-10 under hypoxia (1%) or with the addition of mimosine (800 μM), desferrioxamine mesylate (150 μM), or CoCl2 (150 μM) for 18 hours.
# We measured HIF-1α-dependant transcription in macrophages derived from HRE-luciferase transgenic mice, which contain a luciferase reporter gene driven by 6 consecutive specific HRE sequences.
# Macrophages were derived from the marrow of femurs and tibiae of transgenic HRE-luciferase mice as described above. The luciferase reporter gene in these mice is driven by 6 specific HRE sequences. Cells were incubated with GAS or heat-inactivated GAS for 18 hours. […] Cells were then washed out with PBS, and luciferase assay was performed by using the Bright-Glo Luciferase Assay kit (Promega Corp.). Luciferase activities were measured using a luminometer.
# iNOS = iNOS mRNA by RT-PCR in BM-derived macrophages infected with GAS; type: cell-based, mouse; details: for expression of iNOS mRNA: WT macrophages infected with GAS, RNA isolated 3 hours after antibiotic treatment
# Protocol: (A) Total RNA from WT, HIF-1−/−, and vHL−/− bone marrow-derived macrophages infected with GAS isolated 3 hours after antibiotic treatment. iNOS mRNA was quantified by RT-PCR. WT, nonstimulated macrophages were arbitrarily set to 1 unit following normalization to ribosomal RNA levels. […] Total RNA from WT and HIF-1-null BM-derived macrophages infected with GAS±Mim isolated 3 hours after antibiotic treatment. iNOS mRNA was quantified by RT-PCR. WT, noninfected macrophages were arbitrarily set to 1 unit following normalization to ribosomal RNA levels. Statistical analyses performed by unpaired Student's t test. **P<0.01; ***P<0.001.
# First-strand synthesis was obtained from 1 μg of total RNA isolated with Trizol reagent (Molecular Research Center Inc.) by the SuperScript system (Invitrogen Corp.), employing random primers.
# Staphylococcus aureus [3] = assay: Bactericidal capacity of freshly isolated human blood; type: cell-based
# Staphylococcus aureus [4] = assay: Bactericidal capacity of freshly isolated human neutrophils against S. aureus; type: cell-based
# Staphylococcus aureus [5] = assay: Bactericidal capacity of cultured human monocytic cells against S. aureus; type: cell-based
# [6] = system: vincomycin-resistant Enterococcus species; details: freshly isolated human neutrophils
# [7] = system: vincomycin-resistant Enterococcus species; details: cultured human monocytic cells
structure (smiles),measurement,setting,value
"Cc1ccc(S(=O)(=O)O)cc1.NNC(N)=NO [AG, 1-amino-2-hydroxyguanidine, p-toluenesulfate]",bactericidal activity of HIF-1α-null macrophages,"[1]; HIF-1α-null macrophages, presence of iNOS inhibitor",did not further suppress
same,bactericidal activity of WT macrophages,"[1]; WT macrophages, presence of iNOS inhibitor",inhibited
same,production of NO in response to GAS,NO production,significantly inhibited
same,GAS-induced increase of HIF-1α levels,HIF-1α,blocked
same,TNF-α protein in conditioned supernatants,TNF-α,reduced amounts
"[Cl][Co][Cl] [CoCl2, cobalt chloride]",increase in luciferase reporter activity,[2],3 fold
same,intracellular killing of GAS by WT macrophages,[1],increased
"Cc1c(O)c(=O)ccn1C [OH-pyridone, 3-hydroxy-1,2-dimethyl-4(1H)-pyridone]",intracellular killing of GAS by WT macrophages,[1],increased
CC(=O)N(O)CCCCCNC(=O)CCC(=O)N(O)CCCCCNC(=O)CCC(=O)N(O)CCCCCN [desferrioxamine mesylate],increase in luciferase reporter activity,[2],3 fold
same,intracellular killing of GAS by WT macrophages,[1],increased
"N[C@@H](Cn1ccc(=O)c(O)c1)C(=O)O [L-Mim, 3-Hydroxy-4-oxo-1(4H)-pyridinealanine]",intracellular killing of GAS by WT macrophages,[1],increased
same,increased expression of iNOS mRNA,iNOS; HIF-1α-null macrophages infected with GAS,very low
same,expression of iNOS mRNA,iNOS,greatly increased
same,expression of iNOS mRNA,iNOS; listed as Mim,enhances
same,bactericidal capacity against Staphylococcus aureus,Staphylococcus aureus [3],increase
same,bactericidal capacity against Staphylococcus aureus,Staphylococcus aureus [4],increase
same,bactericidal capacity against Staphylococcus aureus,Staphylococcus aureus [5],increase
same,bactericidal capacity against vincomycin-resistant Enterococcus species,[6],increase
same,bactericidal capacity against vincomycin-resistant Enterococcus species,[7],increase

# Source: patent US20080213404A1, “Hif Modulating Compounds and Methods of Use Thereof” (priority 2005, published 2008)
